The structures appear in SMILES notation.

We go through seven compounds from the supplement of paper PMC10627819.

Holding throughout (assay): Bliss interaction score (quartile over a dose matrix) (fitness difference); higher = more antagonism (negative = synergy)
Test [1] has as its system S. aureus DSM 20231. A digest of the protocol:
(§1)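 The Bliss score takes observed fitness and subtracts the expected fitness, calculated as a product of single-drug fitness values. Those single-drug values were inferred from the combination data. Fitness is OD595 at entry into stationary phase divided by the plate's robust no-drug mean, capped at 1, and the score is summarised by quartiles across technical, biological and donor/recipient replicates.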

Test [2] deals with S. aureus Newman. A digest of the protocol:
as §1

In test [3] the test system is S. pneumoniae D39V. A digest of the protocol: as §1
Test [4] deals with B. subtilis 168. An outline of the steps:
as §1
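Also: first quartile when negative (synergy) and third quartile when positive (antagonism).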

`CC[C@H]1OC(=O)[C@H](C)[C@@H](O[C@H]2C[C@@](C)(OC)[C@@H](O)[C@H](C)O2)[C@H](C)[C@@H](O[C@@H]2O[C@H](C)C[C@H](N(C)C)[C@H]2O)[C@](C)(O)C[C@@H](C)C(=O)[C@H](C)[C@@H](O)[C@]1(C)O` [Erythromycin] + CN1C2=CC=CC=C2N=C3C1=CC=CC3=O [Pyocyanin]: the Bliss interaction score in test [1] was -0.0317; in test [2] it was -0.051; in test [3], -0.0454; in test [4] it was 0.0449.

As for `CC[C@H]1OC(=O)[C@H](C)[C@@H](O[C@H]2C[C@@](C)(OC)[C@@H](O)[C@H](C)O2)[C@H](C)[C@@H](O[C@@H]2O[C@H](C)C[C@H](N(C)C)[C@H]2O)[C@](C)(O)C[C@@H](C)C(=O)[C@H](C)[C@@H](O)[C@]1(C)O` [Erythromycin] + CN(C)C(=O)C(CCN1CCC(O)(c2ccc(Cl)cc2)CC1)(c1ccccc1)c1ccccc1 [Loperamide], the Bliss interaction score was 0.0888 in test [1], -0.039 in test [2], 0.116 in test [3] and 0.0381 in test [4].

Consider `CC[C@H]1OC(=O)[C@H](C)[C@@H](O[C@H]2C[C@@](C)(OC)[C@@H](O)[C@H](C)O2)[C@H](C)[C@@H](O[C@@H]2O[C@H](C)C[C@H](N(C)C)[C@H]2O)[C@](C)(O)C[C@@H](C)C(=O)[C@H](C)[C@@H](O)[C@]1(C)O` [Erythromycin] + CN(C)c1cc(NC(=O)CNC(C)(C)C)c(O)c2c1C[C@H]1C[C@H]3[C@H](N(C)C)C(O)=C(C(N)=O)C(=O)[C@@]3(O)C(O)=C1C2=O [Tigecycline], for which the Bliss interaction score in test [1] was -0.0257; in test [2] it was -0.0253; in test [3] it was -0.0975; in test [4], -0.0505.

As to `CC[C@H]1OC(=O)[C@H](C)[C@@H](O[C@H]2C[C@@](C)(OC)[C@@H](O)[C@H](C)O2)[C@H](C)[C@@H](O[C@@H]2O[C@H](C)C[C@H](N(C)C)[C@H]2O)[C@](C)(O)C[C@@H](C)C(=O)[C@H](C)[C@@H](O)[C@]1(C)O` [Erythromycin] + CN(N=O)C(=O)N[C@@H](C=O)[C@@H](O)[C@H](O)[C@H](O)CO [Streptozotocin], the Bliss interaction score in test [1] was -0.0271; in test [2], -0.0533; in test [3], -0.0459; in test [4], -0.0271.

Regarding `CC[C@H]1OC(=O)[C@H](C)[C@@H](O[C@H]2C[C@@](C)(OC)[C@@H](O)[C@H](C)O2)[C@H](C)[C@@H](O[C@@H]2O[C@H](C)C[C@H](N(C)C)[C@H]2O)[C@](C)(O)C[C@@H](C)C(=O)[C@H](C)[C@@H](O)[C@]1(C)O` [Erythromycin] + CN[C@@H]1[C@H](O)[C@H](NC)[C@H]2O[C@@]3(O)C(=O)C[C@@H](C)O[C@H]3O[C@@H]2[C@H]1O [Spectinomycin], the Bliss interaction score was -0.0696 in test [1], -0.172 in test [2], -0.0547 in test [3] and -0.093 in test [4].

In the case of `CC[C@H]1OC(=O)[C@H](C)[C@@H](O[C@H]2C[C@@](C)(OC)[C@@H](O)[C@H](C)O2)[C@H](C)[C@@H](O[C@@H]2O[C@H](C)C[C@H](N(C)C)[C@H]2O)[C@](C)(O)C[C@@H](C)C(=O)[C@H](C)[C@@H](O)[C@]1(C)O` [Erythromycin] + CN[C@@H]1[C@H](O[C@H]2[C@H](O[C@H]3[C@H](O)[C@@H](O)[C@H](N=C(N)N)[C@@H](O)[C@@H]3N=C(N)N)O[C@@H](C)[C@]2(O)C=O)O[C@@H](CO)[C@H](O)[C@H]1O [Streptomycin], the Bliss interaction score is 0.0256 in test [1], -0.0695 in test [2], -0.0481 in test [3] and 0.0844 in test [4].

Consider `CC[C@H]1OC(=O)[C@H](C)[C@@H](O[C@H]2C[C@@](C)(OC)[C@@H](O)[C@H](C)O2)[C@H](C)[C@@H](O[C@@H]2O[C@H](C)C[C@H](N(C)C)[C@H]2O)[C@](C)(O)C[C@@H](C)C(=O)[C@H](C)[C@@H](O)[C@]1(C)O` [Erythromycin] + CN[C@H](CC(C)C)C(=O)N[C@H]1C(=O)N[C@@H](CC(N)=O)C(=O)N[C@H]2C(=O)N[C@H]3C(=O)N[C@H](C(=O)N[C@H](C(=O)O)c4cc(O)cc(O)c4-c4cc3ccc4O)[C@H](O)c3ccc(c(Cl)c3)Oc3cc2cc(c3O[C@@H]2O[C@H](CO)[C@@H](O)[C@H](O)[C@H]2O[C@H]2C[C@](C)(N)[C@H](O)[C@H](C)O2)Oc2ccc(cc2Cl)[C@H]1O [Vancomycin], for which the Bliss interaction score in test [1] is 0.0298; in test [2], -0.0375; in test [3], 0.0403; in test [4], 0.035.
